Data: EPA's aquatic toxicity sets

Assays:
Pimephales promelas = assay: 96 h LC50 (-log10 mol/L); higher = more toxic
Tetrahymena pyriformis = assay: 48 h IGC50 (-log10 mol/L); higher = more toxic

| SMILES | 96 h LC50 (-log10 mol/L) (Pimephales promelas) | 48 h IGC50 (-log10 mol/L) (Tetrahymena pyriformis) |
| --- | --- | --- |
| C=Cn1c2ccccc2c2ccccc21 | 7.81 | 5.24 |
| CCOC(=O)c1ccccc1 | 4.25 | 2.99 |
| N#Cc1cc(Cl)ccc1N | 3.73 | 3.44 |
| Cc1ccc(C)o1 | 3.13 | 2.52 |
| CCCCCCCBr | 5.09 | 4.49 |
| O=Cc1cc(Br)cc(Br)c1O | 5.52 | 4.65 |
| C=CCc1ccc(O)c(OC)c1 | 3.83 | 3.42 |
| c1ccc2occc2c1 | 3.93 | 2.89 |
| NC(=O)c1ccccc1 | 2.26 | 2.09 |
| Oc1cccnc1Br | 2.57 | 3.15 |
| CCCCOC(C)=O | 3.81 | 2.51 |
| CCOC(=O)CCCCC(=O)OCC | 4.05 | 2.87 |
| c1ccc2cnncc2c1 | 3.11 | 2.66 |
| COC(=O)c1ccc(Cl)cc1 | 4.16 | 3.42 |
| CCCCC=O | 3.83 | 2.98 |
| c1ccc(-c2ccncc2)cc1 | 3.98 | 3.66 |
| O=c1cc(-c2ccccc2)oc2ccccc12 | 4.8 | 4.41 |

| SMILES | 96 h LC50 (-log10 mol/L) (Pimephales promelas) | 48 h IGC50 (-log10 mol/L) (Tetrahymena pyriformis) |
| --- | --- | --- |
| CC(=O)c1ccc(Cl)c(Cl)c1Cl | 5.05 | 4.34 |
| O=C1CCCCC1 | 2.19 | 1.77 |
| CC1(C)OCC(CO)O1 (stereo unspecified) | 0.898 | 1.21 |
| Nc1cc([N+](=O)[O-])cc([N+](=O)[O-])c1 | 3.93 | 3.94 |
| CCCOC(C)=O | 3.23 | 1.76 |
| CCCCCCCCCC(C)=O | 5.05 | 4.54 |
| CCCCC(C)=O | 2.37 | 1.66 |
| Cc1nc(C)c(C)o1 | 2.4 | 1.99 |
| CC(C)(CC(=O)O)CC(=O)O | 1.05 | 2.34 |
| CCCCOC(=O)CCCCC(=O)OCCCC | 4.85 | 3.79 |
| CCCCCCCCCCCO | 5.22 | 4.96 |
| CCCCOC(=O)CCC(=O)OCCCC | 4.71 | 3.51 |
| Oc1c(Br)cc(Br)cc1Br | 4.71 | 4.91 |
| CC(=O)CC(C)C | 2.27 | 1.79 |
| CC(=O)CC(=O)c1ccccc1 | 5.17 | 3.57 |
| O=[N+]([O-])c1cc([N+](=O)[O-])c(Cl)cc1Cl | 6.78 | 5.72 |
